Data as given in patent publication US20250171437A1 (Agios Pharmaceuticals,Inc., priority 2022, published 2025).

Molecular target: T1, human PAH with the R408W mutation (A375 R408W cells) (Homo sapiens, UniProt P00439, R408W)
T1 construct: expressed in transfected cells
T1 sequence (P00439 1-452 R408W): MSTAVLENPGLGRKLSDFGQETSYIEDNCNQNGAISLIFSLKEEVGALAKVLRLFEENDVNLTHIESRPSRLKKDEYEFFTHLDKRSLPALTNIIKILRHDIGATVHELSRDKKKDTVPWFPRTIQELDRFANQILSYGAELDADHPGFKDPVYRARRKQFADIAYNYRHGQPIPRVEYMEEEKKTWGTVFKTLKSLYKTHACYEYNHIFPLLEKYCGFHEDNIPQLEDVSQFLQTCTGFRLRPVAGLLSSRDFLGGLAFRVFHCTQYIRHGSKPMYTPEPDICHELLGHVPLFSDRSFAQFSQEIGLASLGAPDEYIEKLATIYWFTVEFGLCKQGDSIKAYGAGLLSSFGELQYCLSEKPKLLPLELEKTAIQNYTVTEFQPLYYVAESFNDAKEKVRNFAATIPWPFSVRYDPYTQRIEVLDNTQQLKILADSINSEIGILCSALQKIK
Assay: Cell Based Phenylalanine Flux Assay
Conditions: A375 R408W cells; 24 hrs with compound, then 20 μM sepiapterin and 800 μM 13C9,15N-Phenylalanine for 4 hours; 13C-Tyrosine by LC-MS; average where tested multiple times
Procedure, shortened: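 Stable R408W PAH A375 cells: 24 h compound pretreatment in duplicate, then 4 h with 800 μM isotope-labelled Phe and 20 μM sepiapterin. Labelled Tyr output by LC-MS; AC50 averaged where repeated.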

Q: How did the AC50 turn out when `O=C(c1ocnc1CC(F)F)N1CCc2[nH]cnc2[C@H]1c1nc2cc(F)ccc2o1` [Example 865, (S)-(4-(2,2-difluoroethyl)oxazol-5-yl)(4-(5-fluorobenzo[d]oxazol-2-yl)-6,7-dihydro-1H-imidazo[4,5-c]pyridin-5(4H)-yl)methanone] was run?
A: ≤ 500 nM

Q: For `Cc1cccc2nc([C@H]3c4nc[nH]c4CCN3C(=O)c3nnc(-c4ncccc4F)o3)oc12` [Example 857, (R)-(5-(3-fluoropyridin-2-yl)-1,3,4-oxadiazol-2-yl)(4-(7-methylbenzo[d]oxazol-2-yl)-6,7-dihydro-1H-imidazo[4,5-c]pyridin-5(4H)-yl)methanone], which AC50 is on record?
A: 1000 to 5000 nM

Q: With `Cc1ccc2c(C(=O)N3CCc4[nH]cnc4[C@H]3c3nc4cc(F)ccc4o3)cnn2c1` [Example 19, (S)-(4-(5-fluorobenzo[d]oxazol-2-yl)-6,7-dihydro-1H-imidazo[4,5-c]pyridin-5(4H)-yl)(6-methylpyrazolo[1,5-a]pyridin-3-yl)methanone] as the molecule, how does the AC50 read?
A: 1000 to 5000 nM

Q: For `Cn1ccc(-c2nnc(C(=O)N3CCc4[nH]cnc4[C@H]3c3nc4c(F)ccc(F)c4o3)o2)n1` [Example 813], which AC50 is on record?
A: ≤ 500 nM

Q: `Cc1nc([C@H](C)O)oc1C(=O)N1CCc2[nH]cnc2[C@@H]1c1nc2ccc(F)cc2o1` [Example 242, ((R)-4-(6-fluorobenzo[d]oxazol-2-yl)-6,7-dihydro-1H-imidazo[4,5-c]pyridin-5(4H)-yl)(2-((S)-1-hydroxyethyl)-4-methyloxazol-5-yl)methanone] was tested. Which AC50 did it give?
A: ≥ 5000 nM

Q: Which AC50 does the source give for `CC(C)(O)c1nc(C(F)F)c(C(=O)N2CCc3[nH]cnc3[C@H]2c2nc3cccc(C(F)(F)F)c3o2)o1` [Example 453, (S)-(4-(difluoromethyl)-2-(2-hydroxypropan-2-yl)oxazol-5-yl)(4-(7-(trifluoromethyl)benzo[d]oxazol-2-yl)-6,7-dihydro-1H-imidazo[4,5-c]pyridin-5(4H)-yl)methanone] here?
A: ≤ 500 nM

Q: `Cn1cc(-c2nc(C(F)F)c(C(=O)N3CCc4[nH]cnc4[C@H]3c3nc4ccccc4o3)o2)cn1` [Example 760, (S)-(4-(benzo[d]oxazol-2-yl)-6,7-dihydro-1H-imidazo[4,5-c]pyridin-5(4H)-yl)(4-(difluoromethyl)-2-(1-methyl-1H-pyrazol-4-yl)oxazol-5-yl)methanone] was tested. Which AC50 did it give?
A: ≤ 500 nM

Q: How did the AC50 turn out when `Cc1ncoc1C(=O)N1Cc2[nH]cnc2[C@@H]1c1nc2ccccc2o1` [Example 942, (R)-(4-(benzo[d]oxazol-2-yl)-4,6-dihydropyrrolo[3,4-d]imidazol-5(1H)-yl)(4-methyloxazol-5-yl)methanone] was run?
A: 1000 to 5000 nM

Q: How did the AC50 turn out when `Cc1cccc2nc([C@H]3c4nc[nH]c4CCN3C(=O)c3cc(C(F)F)nn3C)oc12` [Example 736] was run?
A: 1000 to 5000 nM

Q: Which AC50 does the source give for `O=C(c1nnc(-c2ccn(C(F)F)n2)o1)N1CCc2[nH]cnc2[C@@H]1c1nc2cccc(F)c2o1` [Example 861, (R)-(5-(1-(difluoromethyl)-1H-pyrazol-3-yl)-1,3,4-oxadiazol-2-yl)(4-(7-fluorobenzo[d]oxazol-2-yl)-6,7-dihydro-1H-imidazo[4,5-c]pyridin-5(4H)-yl)methanone] here?
A: 500 to 1000 nM

Q: For `O=C(c1oc(-c2ccncc2)nc1C(F)F)N1CCc2[nH]cnc2[C@@H]1c1nc2cc(F)ccc2o1` [Example 422, (R)-(4-(difluoromethyl)-2-(pyridin-4-yl)oxazol-5-yl)(4-(5-fluorobenzo[d]oxazol-2-yl)-6,7-dihydro-1H-imidazo[4,5-c]pyridin-5(4H)-yl)methanone], which AC50 is on record?
A: 500 to 1000 nM

Q: Which AC50 does the source give for `Cc1ccc2oc([C@@H]3c4nc[nH]c4CCN3C(=O)c3ocnc3C(F)(F)F)nc2c1` [Example 63, (S)-(4-(5-methylbenzo[d]oxazol-2-yl)-6,7-dihydro-1H-imidazo[4,5-c]pyridin-5(4H)-yl)(4-(trifluoromethyl)oxazol-5-yl)methanone] here?
A: ≤ 500 nM

Q: `Cc1ccc2oc([C@@H]3c4nc[nH]c4CCN3C(=O)c3nnc(-c4ccn(C(F)F)n4)o3)nc2c1` [Example 695, (S)-(5-(1-(difluoromethyl)-1H-pyrazol-3-yl)-1,3,4-oxadiazol-2-yl)(4-(5-methylbenzo[d]oxazol-2-yl)-6,7-dihydro-1H-imidazo[4,5-c]pyridin-5(4H)-yl)methanone] was tested. Which AC50 did it give?
A: ≤ 500 nM

Q: With `Cn1cnc(-c2nc(C(F)F)c(C(=O)N3CCc4[nH]cnc4[C@H]3c3nc4cc(F)ccc4o3)o2)c1` [Example 641, (S)-(4-(difluoromethyl)-2-(1-methyl-1H-imidazol-4-yl)oxazol-5-yl)(4-(5-fluorobenzo[d]oxazol-2-yl)-6,7-dihydro-1H-imidazo[4,5-c]pyridin-5(4H)-yl)methanone] as the molecule, how does the AC50 read?
A: ≤ 500 nM

Q: For `Cn1ccc(-c2nnc(C(=O)N3CCc4[nH]cnc4[C@@H]3c3nc4ccccc4o3)o2)n1` [Example 844, (R)-(4-(benzo[d]oxazol-2-yl)-6,7-dihydro-1H-imidazo[4,5-c]pyridin-5(4H)-yl)(5-(1-methyl-1H-pyrazol-3-yl)-1,3,4-oxadiazol-2-yl)methanone], which AC50 is on record?
A: 500 to 1000 nM

Q: Which AC50 does the source give for `O=C(c1ocnc1CC(F)F)N1CCc2[nH]cnc2[C@@H]1c1nc2ccccc2o1` [Example 874, (R)-(4-(benzo[d]oxazol-2-yl)-6,7-dihydro-1H-imidazo[4,5-c]pyridin-5(4H)-yl)(4-(2,2-difluoroethyl)oxazol-5-yl)methanone] here?
A: 500 to 1000 nM

Q: With `O=C(c1nnc(-c2ccn(C(F)F)n2)o1)N1CCc2[nH]cnc2[C@@H]1c1nc2c(F)ccc(F)c2o1` [Example 815, (R)-(4-(4,7-difluorobenzo[d]oxazol-2-yl)-6,7-dihydro-1H-imidazo[4,5-c]pyridin-5(4H)-yl)(5-(1-(difluoromethyl)-1H-pyrazol-3-yl)-1,3,4-oxadiazol-2-yl)methanone] as the molecule, how does the AC50 read?
A: 500 to 1000 nM

Q: Which AC50 does the source give for `CN1CCN(c2nc(C(F)F)c(C(=O)N3CCc4[nH]cnc4[C@@H]3c3nc4cccc(F)c4o3)o2)CC1` [Example 618, (R)-(4-(difluoromethyl)-2-(4-methylpiperazin-1-yl)oxazol-5-yl)(4-(7-fluorobenzo[d]oxazol-2-yl)-6,7-dihydro-1H-imidazo[4,5-c]pyridin-5(4H)-yl)methanone] here?
A: 500 to 1000 nM

Q: `FC(F)(F)c1cnc(N2Cc3[nH]cnc3[C@H]2c2nc3ccccc3o2)nc1` [Example 949, (S)-2-(5-(5-(trifluoromethyl)pyrimidin-2-yl)-1,4,5,6-tetrahydropyrrolo[3,4-d]imidazol-4-yl)benzo[d]oxazole] was tested. Which AC50 did it give?
A: 1000 to 5000 nM

Q: How did the AC50 turn out when `CC(C)(O)c1ncc(C(=O)N2CCc3[nH]cnc3[C@H]2c2nc3c(F)cccc3o2)o1` [Example 893, (S)-(4-(4-fluorobenzo[d]oxazol-2-yl)-6,7-dihydro-1H-imidazo[4,5-c]pyridin-5(4H)-yl)(2-(2-hydroxypropan-2-yl)oxazol-5-yl)methanone] was run?
A: 1000 to 5000 nM

Q: With `Cc1ccc2oc([C@@H]3c4nc[nH]c4CCN3C(=O)c3oc(C(C)(C)O)nc3C)nc2c1` [Example 331, (S)-(2-(2-hydroxypropan-2-yl)-4-methyloxazol-5-yl)(4-(5-methylbenzo[d]oxazol-2-yl)-6,7-dihydro-1H-imidazo[4,5-c]pyridin-5(4H)-yl)methanone] as the molecule, how does the AC50 read?
A: 500 to 1000 nM

Q: With `O=C(c1nnc(-c2ccn(C(F)F)n2)o1)N1CCc2[nH]cnc2[C@@H]1c1nc2cccc(C(F)(F)F)c2o1` [Example 853, (R)-(5-(1-(difluoromethyl)-1H-pyrazol-3-yl)-1,3,4-oxadiazol-2-yl)(4-(7-(trifluoromethyl)benzo[d]oxazol-2-yl)-6,7-dihydro-1H-imidazo[4,5-c]pyridin-5(4H)-yl)methanone] as the molecule, how does the AC50 read?
A: 500 to 1000 nM

Q: For `O=C(c1ocnc1C(F)F)N1CCc2[nH]cnc2[C@H]1c1nc2c(C(F)(F)F)cccc2o1` [Example 465, (S)-(4-(difluoromethyl)oxazol-5-yl)(4-(4-(trifluoromethyl)benzo[d]oxazol-2-yl)-6,7-dihydro-1H-imidazo[4,5-c]pyridin-5(4H)-yl)methanone], which AC50 is on record?
A: ≤ 500 nM

Q: For `Cn1ccc(-c2nnc(C(=O)N3CCc4[nH]cnc4[C@@H]3c3nc4cc(F)ccc4o3)o2)n1` [Example 105, (R)-(4-(5-fluorobenzo[d]oxazol-2-yl)-6,7-dihydro-1H-imidazo[4,5-c]pyridin-5(4H)-yl)(5-(1-methyl-1H-pyrazol-3-yl)-1,3,4-oxadiazol-2-yl)methanone], which AC50 is on record?
A: 1000 to 5000 nM

Same assay, conditions: A375 cells expressing R408W PAH; 24 hrs with compound, then 20 μM sepiapterin and 800 μM 13C9,15N-Phenylalanine for 4 hours; 13C-Tyrosine by LC-MS; average where tested multiple times

Q: How did the AC50 turn out when `Cn1nc(C(C)(C)C)nc1C(=O)N1CCc2[nH]cnc2C1c1nc2ccccc2o1` (centres unmarked) was run?
A: 1000 to 5000 nM

Q: With `Cn1nccc1C(=O)N1CCc2[nH]cnc2C1c1nc2cccc(F)c2o1` (centres unmarked) as the molecule, how does the AC50 read?
A: 1000 to 5000 nM

Q: Which AC50 does the source give for `Cn1nccc1C(=O)N1CCc2[nH]cnc2C1c1nc2cc(F)ccc2o1` (centres unmarked) here?
A: 1000 to 5000 nM

Q: Which AC50 does the source give for `Cn1ccc(C(=O)N2CCc3[nH]cnc3C2c2nc3cc(F)ccc3o2)n1` (centres unmarked) here?
A: ≥ 5000 nM

Q: Which AC50 does the source give for `O=C(c1nnc(-c2cn[nH]c2)o1)N1CCc2[nH]cnc2C1c1nc2ccc(F)cc2o1` (centres unmarked) here?
A: 1000 to 5000 nM

Q: Which AC50 does the source give for `O=C(c1nnc(-c2ccncc2)o1)N1CCc2[nH]cnc2C1c1nc2cc(F)ccc2o1` (centres unmarked) here?
A: 1000 to 5000 nM

Q: Which AC50 does the source give for `O=C(C1CN(CC(F)(F)F)C1)N1CCc2[nH]cnc2C1c1nc2cc(F)ccc2o1` (centres unmarked) here?
A: 1000 to 5000 nM

Q: For `COC(C)(C)c1nc(C)c(C(=O)N2CCc3[nH]cnc3C2c2nc3cc(F)ccc3o2)o1` (centres unmarked), which AC50 is on record?
A: 1000 to 5000 nM
